Patent US20110238319A1, “METHOD OF DIAGNOSING A RESPIRATORY DISEASE” (priority 2008, published 2011)

Experiments:
[1] = tested on: guinea pigs; experiment: Lung lavage total and differential cell counts; format: in vivo, guinea pig
Experimental: (§1) Animals were sacrificed with an overdose of urethane (3 gm/kg i.v.). Cytosmear for total and differential cell counts (Diff-Quik®, Baxter Healthcare Corp) were performed on lung lavage ^17. The lungs were removed, inflated and fixed in 3.7% formaldehyde for 24 hours. Airway sections were stained with 2% chromotrope 2R to determine the average number of eosinophils per 10 high power field (#/hpf) as previously described^20.
(§2) A P-value of 0.05 was considered significant.

[2] = tested on: guinea pigs; experiment: Eosinophil count in cartilaginous airways (histology); format: in vivo, guinea pig; conditions: challengeddex vs challenged
Experimental: as §1, §2

[3] = tested on: guinea pigs
Experimental: Female Dunkin-Hartley guinea pigs (GP) were used (specific pathogen-free, 180-450 g, Charles River Laboratories, Saint-Constant, Canada) in accordance with standards established by the University of Alberta Health Sciences Animal Policy and Welfare Committee and Guidelines of the Canadian Council on Animal Care. All guinea pigs were allowed to adapt to the new environment for at least one week before physiologic studies. […] Airway function and inflammation were assessed four days after OVA challenge or 21 days after sensitization alone.
Guinea Pigs were anesthetized with urethane (1.5 g/kg i.p.), tracheostomized, and ventilated after paralysis with succinylcholine chloride (Sigma-Aldrich) (10 μg/kg/min, i.v.). Pulmonary inflation pressure (Ppi) was measured using (Powerlab, Adlnstruments, Colorado Springs, USA) as previously described^17. […] The resulting bronchoconstriction was recorded as increases in Ppi.
The results are expressed as mean and standard error of the mean (SEM) and standard deviation (SD) respectively. A P-value of 0.05 was considered significant.

[4] = Urine metabolite concentrations by 1H-NMR (Chenomx, PLS-DA); format: in vivo, guinea pig; conditions: for urine Fumarate concentration / urine Glycolate concentration / urine Trimethylamine concentration: mean (STD) per title
Experimental: Regarding animal urine data: under anaesthesia, but before performing airway inflammatory measurements, urine samples (1.0-2.0 cc) were collected by trans-abdominal cystocentesis. Regarding human urine data: midstream urine samples were collected in standard 50 ml specimen containers and promptly placed in a freezer at the outpatient clinic (−20° C.).
Within 3 hours each the urine sample was moved to the −80° C. freezer at NANUC (National High Field NMR Centre), University of Alberta. To determine the NMR spectra, the samples were thawed in a biosafety fume hood and a […] aliquot was removed and placed in a 1.5 ml Eppendorff tube followed by the addition of […] of a reference buffer solution (4.9 mM DSS (disodium-2, 2-dimethyl 2-silapentane-5-sulphonate) and 100 mM imidazole in D2O, Sigma-Aldrich). Each sample was brought to a pH of 7.0 +/-0.1 using HCl and NaOH. An uncentrifuged aliquot of 600 μl was taken and transferred to a standard 5 mm glass NMR tube (Wilmad, N.J.). ^1H-NMR spectra were acquired on a 600 MHz Inova spectrometer (Varian Inc, Palo Alto, Calif.) equipped with a 5 mm triple-resonance (HCN) probe with z-axis gradient coil. One-dimensional ^1H-NMR spectra were collected at 25° C. with a tnnoesy pulse sequence (one-dimensional, three pulse NOESY, with a transmitter pre-saturation delay of 900 ms for water suppression during the pre-acquisition delay and 100 ms mixing time) and a spectral width of 7200 Hz. The time-domain data points were 64k complex points, acquisition time was 4s, 90° pulse was 6.8 μs, repetition time was 5 s, with four steady state scans, and 32 acquired scans per FID (Free Induction Decay). The data were apodized with an exponential window function corresponding to a line broadening of 0.5 Hz, zero-filled to 128 k complex points, and Fourier transformed^22.
Quantification of 50-70 easily identifiable metabolites involved in various relevant metabolic pathways was performed using Chenomx NMR Suite Professional software package Version 3.1 (Chenomx Inc., Edmonton, AB)^23. The software contains a database of known metabolites with their referenced spectral resonant frequencies or signatures. The software allows matching of these known resonant frequencies with the observed resonant frequencies of the collected spectra, enabling the qualitative and quantitative analysis of metabolites in urine NMR spectra (FIG. 1A). The methyl groups from DSS produce a resonant singlet, which served as internal standard for spectral chemical shifts (set to 0 ppm) and for quantification. The internal DSS signal was also utilized as the concentration reference (0.49 mM). To correct for dilution, metabolite concentrations were referenced against urinary creatinine^24. This method is capable of providing metabolite concentration accuracies in excess of 90%^23, 25.
To separate groups of animals or patients based on urine metabolite concentrations, the values of the 50-70 metabolite concentrations for each animal/child were log transformed and imported to SIMCA software (SIMCA-P 11, Umetrics, USA). […] To appreciate the impact of a lower concentration metabolite in the model, equal to the change in an abundant metabolite, the methods must detect the relative change in concentration. Thus, metabolite concentrations were mean-centered followed by unit variance scaling (or z-scoring). Thereafter, partial least squares discriminant analysis (PLS-DA) was performed (SIMCA-P 11). PLS-DA determines the relationship between the response vector Y (i.e. subject group) and the matrix X (concentration of each metabolite) by simultaneous projections of both Y and X spaces to a plane. Then seven fold internal crossvalidation was performed by dividing the data into seven parts (by default) and each 1/7th in turn was removed.

C[C@@H]1C[C@H]2[C@@H]3CCC4=CC(=O)C=C[C@]4(C)[C@@]3(F)[C@@H](O)C[C@]2(C)[C@@]1(O)C(=O)CO [Dex, dexamethasone]
total cells in lung lavage ([1]; challengeddex vs challenged): remained higher similar to challenge | lymphocytes in lung lavage ([1]; challengeddex vs challenged, p<0.05): significantly lower | total cell counts in lung lavage ([1]; controldex vs control and sensitized, dexamethasone 6.5 μg/kg i.p. daily for three days): no significant difference | macrophage values in lung lavage ([1]; controldex vs control, p=0.03): higher compared with control | eosinophils in cartilaginous airways [2]: remained similar to challenged | bronchoconstriction response to histamine (Ppi) ([3]; challengeddex compared to challenged alone, dexamethasone 6.5 μg/kg i.p. 1 hour after challenge then daily for two days, p<0.05): diminished response | urine 1-Methyl-Histamine concentration ([4]; Challenged/Dex group (n = 12)): 0.044(0.002-0.055) mmol/mmol creatinine | urine 2-OH-Isobutyrate concentration ([4]; Challenged/Dex group (n = 12)): 0.043(0.031-0.061) mmol/mmol creatinine | urine 2-Oxoglutarate concentration ([4]; Challenged/Dex group (n = 12)): 0.006(0.005-0.012) mmol/mmol creatinine | urine 3-Methyl-Adipate concentration ([4]; Challenged/Dex group (n = 12)): 0.011(0.009-0.017) mmol/mmol creatinine | urine 3-OH-3-Methyl-Glutarate concentration ([4]; Challenged/Dex group (n = 12)): 0.010(0.006-0.014) mmol/mmol creatinine | urine 3-OH-Butyrate concentration ([4]; Challenged/Dex group (n = 12)): 0.018(0.013-0.029) mmol/mmol creatinine | urine 4-Aminohippurate concentration ([4]; Challenged/Dex group (n = 12)): 0.010(0.005-0.010) mmol/mmol creatinine | urine 4-OH-Phenylacetate concentration ([4]; Challenged/Dex group (n = 12)): 0.122(0.068-0.196) mmol/mmol creatinine | urine 4-Pyridoxate concentration ([4]; Challenged/Dex group (n = 12)): 0.009(0.005-0.010) mmol/mmol creatinine | urine Acetate concentration ([4]; Challenged/Dex group (n = 12)): 0.118(0.081-0.203) mmol/mmol creatinine | urine Acetoacetate concentration ([4]; Challenged/Dex group (n = 12)): 0.007(0.005-0.010) mmol/mmol creatinine | urine Acetone concentration ([4]; Challenged/Dex group (n = 12)): 0.005(0.003-0.009) mmol/mmol creatinine | urine Adenosine concentration ([4]; Challenged/Dex group (n = 12)): 0(0-0.001) mmol/mmol creatinine | urine Carnitine concentration ([4]; Challenged/Dex group (n = 12)): 0.010(0.010-0.015) mmol/mmol creatinine | urine Creatine concentration ([4]; Challenged/Dex group (n = 12)): 0.026(0.016-0.033) mmol/mmol creatinine | urine Dimethylamine concentration ([4]; Challenged/Dex group (n = 12)): 0.122(0.103-0.146) mmol/mmol creatinine | urine Glucose concentration ([4]; Challenged/Dex group (n = 12)): 0.155(0.100-0.334) mmol/mmol creatinine | urine Isobutyrate concentration ([4]; Challenged/Dex group (n = 12)): 0(0-0) mmol/mmol creatinine | urine Kynurenate concentration ([4]; Challenged/Dex group (n = 12)): 0.006(0.004-0.008) mmol/mmol creatinine | urine Malonate concentration ([4]; Challenged/Dex group (n = 12)): 0.014(0.010-0.018) mmol/mmol creatinine | urine Methylamine concentration ([4]; Challenged/Dex group (n = 12)): 0.033(0.026-0.069) mmol/mmol creatinine | urine Myolnositol concentration ([4]; Challenged/Dex group (n = 12)): 0.035(0.020-0.080) mmol/mmol creatinine | urine Oxalacetate concentration ([4]; Challenged/Dex group (n = 12)): 0.249(0.197-0.323) mmol/mmol creatinine | urine Phenylacetylglycine concentration ([4]; Challenged/Dex group (n = 12)): 0.140(0.095-0.213) mmol/mmol creatinine | urine Phenylalanine concentration ([4]; Challenged/Dex group (n = 12)): 0.022(0.016-0.042) mmol/mmol creatinine | urine Sarcosine concentration ([4]; Challenged/Dex group (n = 12)): 0.010(0.007-0.016) mmol/mmol creatinine | urine Succinate concentration ([4]; Challenged/Dex group (n = 12)): 0.006(0.005-0.008) mmol/mmol creatinine | urine Trigonelline concentration ([4]; Challenged/Dex group (n = 12)): 0.069(0.063-0.091) mmol/mmol creatinine | urine Trimethyl-N-Oxide concentration ([4]; Challenged/Dex group (n = 12)): 0.045(0.027-0.062) mmol/mmol creatinine | urine Tyrosine concentration ([4]; Challenged/Dex group (n = 12)): 0.024(0.016-0.032) mmol/mmol creatinine | urine Fumarate concentration ([4]; Challenged/Dex group (n = 12)): 0(0-0) mmol/mmol creatinine | urine Glycolate concentration ([4]; Challenged/Dex group (n = 12)): 0(0-0) mmol/mmol creatinine | urine Trimethylamine concentration ([4]; Challenged/Dex group (n = 12)): 0(0-0) mmol/mmol creatinine | urine 1-Methyl-Histamine concentration ([4]; Control/Dex group (n = 4)): 0.015(0.008-0.023) mmol/mmol creatinine | urine 2-OH-Isobutyrate concentration ([4]; Control/Dex group (n = 4)): 0.043(0.038-0.045) mmol/mmol creatinine | urine 2-Oxoglutarate concentration ([4]; Control/Dex group (n = 4)): 0.004(0.003-0.005) mmol/mmol creatinine | urine 3-Methyl-Adipate concentration ([4]; Control/Dex group (n = 4)): 0.015(0.008-0.018) mmol/mmol creatinine | urine 3-OH-3-Methyl-Glutarate concentration ([4]; Control/Dex group (n = 4)): 0.004(0.003-0.005) mmol/mmol creatinine | urine 3-OH-Butyrate concentration ([4]; Control/Dex group (n = 4)): 0.041(0.029-0.048) mmol/mmol creatinine | urine 4-Aminohippurate concentration ([4]; Control/Dex group (n = 4)): 0.090(0.040-0.115) mmol/mmol creatinine | urine 4-OH-Phenylacetate concentration ([4]; Control/Dex group (n = 4)): 0.101(0.095-0.130) mmol/mmol creatinine | urine 4-Pyridoxate concentration ([4]; Control/Dex group (n = 4)): 0.004(0.003-0.005) mmol/mmol creatinine | urine Acetate concentration ([4]; Control/Dex group (n = 4)): 0.137(0.098-0.180) mmol/mmol creatinine | urine Acetoacetate concentration ([4]; Control/Dex group (n = 4)): 0.011(0.009-0.012) mmol/mmol creatinine | urine Acetone concentration ([4]; Control/Dex group (n = 4)): 0.004(0.003-0.005) mmol/mmol creatinine | urine Adenosine concentration ([4]; Control/Dex group (n = 4)): 0.002(0-0.003) mmol/mmol creatinine | urine Carnitine concentration ([4]; Control/Dex group (n = 4)): 0.140(0.120-0.175) mmol/mmol creatinine | urine Creatine concentration ([4]; Control/Dex group (n = 4)): 0.039(0.035-0.045) mmol/mmol creatinine | urine Dimethylamine concentration ([4]; Control/Dex group (n = 4)): 0.096(0.087-0.110) mmol/mmol creatinine | urine Isobutyrate concentration ([4]; Control/Dex group (n = 4)): 0(0-0.50) mmol/mmol creatinine | urine Kynurenate concentration ([4]; Control/Dex group (n = 4)): 0.005(0.004-0.010) mmol/mmol creatinine | urine Malonate concentration ([4]; Control/Dex group (n = 4)): 0.016(0.011-0.020) mmol/mmol creatinine | urine Methylamine concentration ([4]; Control/Dex group (n = 4)): 0.009(0.009-0.014) mmol/mmol creatinine | urine Myolnositol concentration ([4]; Control/Dex group (n = 4)): 0.410(0.380-0.570) mmol/mmol creatinine | urine Oxalacetate concentration ([4]; Control/Dex group (n = 4)): 0.237(0.228-0.247) mmol/mmol creatinine | urine Phenylacetylglycine concentration ([4]; Control/Dex group (n = 4)): 0.024(0.022-0.026) mmol/mmol creatinine | urine Phenylalanine concentration ([4]; Control/Dex group (n = 4)): 0.011(0.009-0.013) mmol/mmol creatinine | urine Sarcosine concentration ([4]; Control/Dex group (n = 4)): 0.004(0.003-0.005) mmol/mmol creatinine | urine Succinate concentration ([4]; Control/Dex group (n = 4)): 0.013(0.011-0.014) mmol/mmol creatinine | urine Succinylacetone concentration ([4]; Control/Dex group (n = 4)): 0.004(0.003-0.005) mmol/mmol creatinine | urine Trigonelline concentration ([4]; Control/Dex group (n = 4)): 0.053(0.044-0.059) mmol/mmol creatinine | urine Trimethyl-N-Oxide concentration ([4]; Control/Dex group (n = 4)): 0.089(0.076-0.107) mmol/mmol creatinine | urine Tyrosine concentration ([4]; Control/Dex group (n = 4)): 0.027(0.016-0.042) mmol/mmol creatinine | urine Fumarate concentration ([4]; Control/Dex group (n = 4)): 0(0-0) mmol/mmol creatinine | urine Glycolate concentration ([4]; Control/Dex group (n = 4)): 0(0-0) mmol/mmol creatinine | urine Trimethylamine concentration ([4]; Control/Dex group (n = 4)): 0(0-0) mmol/mmol creatinine | urine phenylacetylglycine level ([4]; challenged animals after dexamethasone treatment): returned to control levels | urine sarcosine level ([4]; challenged guinea pig after steroid treatment): decreased | urine metabolite profile by PLS-DA ([4]; challenged vs challengeddex, control vs controldex): altered urine metabolite profile | urine myo-inositol level ([4]; challengeddex among guinea pig groups): highest | urinary excretion of 2-hydroxyisobutyrate ([4]; challengeddex vs challenged): levels rose | urinary excretion of glucose ([4]; challengeddex vs challenged): levels rose | urine phenylacetylglycine level ([4]; dexamethasone-treated controls vs control): significantly lower levels

NCCc1c[nH]cn1 [histamine]
bronchoconstriction measured by increasing Ppi ([3]; histamine 1-20 μg/kg i.v.): dose-dependent bronchoconstriction
